In ChEMBL document CHEMBL1131279, “Endothiopeptide inhibitors of HIV-1 protease” (Bioorg Med Chem Lett, 1998):
Starred links: 1 amine or outer side, 2 acyl side, 3 side chain; linkers in the order of their positions; H or OH if unused. Non-standard residues stand in square brackets, D forms with d. Residues, ends and D or L forms follow the SMILES beside them. *: point of attachment. X2 = O=C([C@H](Cc1ccccc1)NC(=S)[C@H](Cc1ccccc1)N[*:1])[*:2]; X3 = O=C([C@H](Cc1ccccc1)CC(O)[C@H](Cc1ccccc1)N[*:1])[*:2]; X4 = CC(C)[C@H](/N=C(\S)[C@H](Cc1ccccc1)N[*:1])C(=O)[*:2]; AlaΨ(CSNH)Ala = C[C@H](NC(=S)[C@H](C)N[*:1])C(=O)[*:2]; X5 = C[C@H](N[*:1])C(=S)N[C@@H](Cc1ccccc1)C(=O)[*:2]; X1 = COC(=O)[C@@H](NC(=S)[C@@H](N*)C(C)C)C(C)C; Cbz = O=C(OCc1ccccc1)*; Boc = CC(C)(C)OC(=O)*

Experiments:
[1] = molecular target: T1, Human immunodeficiency virus type 1 protease (Human immunodeficiency virus 1, UniProt Q72874); experiment: Inhibitory activity against HIV-1 Protease was determined
[2] = molecular target: T1, Human immunodeficiency virus type 1 protease; experiment: Binding affinity was evaluated for competitive inhibition of HIV-1 Protease

Row | SMILES | IC50 [1] [µM] | Ki [2] [µM] | Ki [1] [µM]
1 | COC(=O)[C@@H](NC(=S)[C@@H](NC(=O)[C@H](Cc1ccccc1)NC(=O)[C@H](Cc1ccccc1)NC(=O)[C@H](C)NC(=O)[C@H](C)NC(=O)OC(C)(C)C)C(C)C)C(C)C (Boc-AAFF-X1) | 4.5 | 3.4 | 
2 | COC(=O)[C@@H](NC(=O)[C@@H](NC(=O)[C@H](Cc1ccccc1)NC(=O)[C@H](Cc1ccccc1)NC(=S)[C@H](C)NC(=O)[C@H](C)NC(=O)OC(C)(C)C)C(C)C)C(C)C (Boc-A[X5]FVV-OMe) | 51 |  | 
3 | COC(=O)[C@@H](NC(=O)[C@@H](NC(=O)[C@H](Cc1ccccc1)NC(=O)[C@H](Cc1ccccc1)NC(=O)[C@H](C)/N=C(\S)[C@H](C)NC(=O)OC(C)(C)C)C(C)C)C(C)C (Boc-[AlaΨ(CSNH)Ala]FFVV-OMe) | 160 |  | 
4 | COC(=O)[C@@H](NC(=O)[C@@H](NC(=O)[C@H](Cc1ccccc1)NC(=S)[C@H](Cc1ccccc1)NC(=O)[C@H](C)NC(=O)[C@H](C)NC(=O)OC(C)(C)C)C(C)C)C(C)C (Boc-AA[X2]VV-OMe) | 18 |  | 
5 | COC(=O)[C@@H](NC(=O)[C@@H](NC(=O)[C@H](Cc1ccccc1)CC(O)[C@H](Cc1ccccc1)NC(=O)[C@H](C)NC(=O)[C@H](C)NC(=O)OCc1ccccc1)C(C)C)C(C)C (some centres not stated) (Cbz-AA[X3]VV-OMe) |  |  | 0.0004
6 | COC(=O)[C@@H](NC(=O)[C@@H](/N=C(\S)[C@H](Cc1ccccc1)NC(=O)[C@H](Cc1ccccc1)NC(=O)[C@H](C)NC(=O)[C@H](C)NC(=O)OC(C)(C)C)C(C)C)C(C)C (Boc-AAF[X4]V-OMe) | > 200 |  | 
